Measurements reported in US6228841A, “Peptide derivatives” (Daiichi Pharmaceutical Co., Ltd., priority 1995, dated 2001).
Read-outs that look alike come from different tables or passages of the source.

Tested on: mice
Experiment: analgesic activity by pressure stimulation method (base of tail)
Format: in vivo
Details: Mus musculus, read-out: ED50 (dose providing 50% of % of MPE, analgesic activity)
Experimental: The analgesic activities of peptide derivatives of the present invention were evaluated by pressure stimulation method as follows. Mice were subjected to pressure stimulation at the bases of their tails at a rate of 10 mmHg/second. […] For the experiments, mice that were preliminary determined to respond to a pressure of 40-50 mmHg were used. The maximum stimulating pressure was 100 mmHg. Analgesic activity was calculated as percent of maximum possible effect (% of MPE) according to the following equation: [formula]
wherein Po is the pain reaction threshold before the administration of a drug; Pt is the pain reaction threshold "t" minutes after the administration of the drug; and Pc is the maximum stimulating pressure. According to a dose-response curve, ED50 value was determined as a dose of drug providing 50% of % of MEP and used for comparison of analgesic activity of drugs.

CN1CC[C@]23c4c5ccc(O)c4O[C@H]2[C@@H](O)C=C[C@H]3[C@H]1C5 [morphine] showed an ED50 (oral administration) of 29.6 mg/kg and an ED50 (sc, subcutaneous administration (skin in the backs)) of 4.6 mg/kg.
